For 26 compounds, inhibition results are on record in patent publication US11773099B2, “Compounds and their methods of use” (Praxis Precision Medicines, Inc., priority 2019, dated 2023).

T1 sequence (Q9UQD0 whole entry): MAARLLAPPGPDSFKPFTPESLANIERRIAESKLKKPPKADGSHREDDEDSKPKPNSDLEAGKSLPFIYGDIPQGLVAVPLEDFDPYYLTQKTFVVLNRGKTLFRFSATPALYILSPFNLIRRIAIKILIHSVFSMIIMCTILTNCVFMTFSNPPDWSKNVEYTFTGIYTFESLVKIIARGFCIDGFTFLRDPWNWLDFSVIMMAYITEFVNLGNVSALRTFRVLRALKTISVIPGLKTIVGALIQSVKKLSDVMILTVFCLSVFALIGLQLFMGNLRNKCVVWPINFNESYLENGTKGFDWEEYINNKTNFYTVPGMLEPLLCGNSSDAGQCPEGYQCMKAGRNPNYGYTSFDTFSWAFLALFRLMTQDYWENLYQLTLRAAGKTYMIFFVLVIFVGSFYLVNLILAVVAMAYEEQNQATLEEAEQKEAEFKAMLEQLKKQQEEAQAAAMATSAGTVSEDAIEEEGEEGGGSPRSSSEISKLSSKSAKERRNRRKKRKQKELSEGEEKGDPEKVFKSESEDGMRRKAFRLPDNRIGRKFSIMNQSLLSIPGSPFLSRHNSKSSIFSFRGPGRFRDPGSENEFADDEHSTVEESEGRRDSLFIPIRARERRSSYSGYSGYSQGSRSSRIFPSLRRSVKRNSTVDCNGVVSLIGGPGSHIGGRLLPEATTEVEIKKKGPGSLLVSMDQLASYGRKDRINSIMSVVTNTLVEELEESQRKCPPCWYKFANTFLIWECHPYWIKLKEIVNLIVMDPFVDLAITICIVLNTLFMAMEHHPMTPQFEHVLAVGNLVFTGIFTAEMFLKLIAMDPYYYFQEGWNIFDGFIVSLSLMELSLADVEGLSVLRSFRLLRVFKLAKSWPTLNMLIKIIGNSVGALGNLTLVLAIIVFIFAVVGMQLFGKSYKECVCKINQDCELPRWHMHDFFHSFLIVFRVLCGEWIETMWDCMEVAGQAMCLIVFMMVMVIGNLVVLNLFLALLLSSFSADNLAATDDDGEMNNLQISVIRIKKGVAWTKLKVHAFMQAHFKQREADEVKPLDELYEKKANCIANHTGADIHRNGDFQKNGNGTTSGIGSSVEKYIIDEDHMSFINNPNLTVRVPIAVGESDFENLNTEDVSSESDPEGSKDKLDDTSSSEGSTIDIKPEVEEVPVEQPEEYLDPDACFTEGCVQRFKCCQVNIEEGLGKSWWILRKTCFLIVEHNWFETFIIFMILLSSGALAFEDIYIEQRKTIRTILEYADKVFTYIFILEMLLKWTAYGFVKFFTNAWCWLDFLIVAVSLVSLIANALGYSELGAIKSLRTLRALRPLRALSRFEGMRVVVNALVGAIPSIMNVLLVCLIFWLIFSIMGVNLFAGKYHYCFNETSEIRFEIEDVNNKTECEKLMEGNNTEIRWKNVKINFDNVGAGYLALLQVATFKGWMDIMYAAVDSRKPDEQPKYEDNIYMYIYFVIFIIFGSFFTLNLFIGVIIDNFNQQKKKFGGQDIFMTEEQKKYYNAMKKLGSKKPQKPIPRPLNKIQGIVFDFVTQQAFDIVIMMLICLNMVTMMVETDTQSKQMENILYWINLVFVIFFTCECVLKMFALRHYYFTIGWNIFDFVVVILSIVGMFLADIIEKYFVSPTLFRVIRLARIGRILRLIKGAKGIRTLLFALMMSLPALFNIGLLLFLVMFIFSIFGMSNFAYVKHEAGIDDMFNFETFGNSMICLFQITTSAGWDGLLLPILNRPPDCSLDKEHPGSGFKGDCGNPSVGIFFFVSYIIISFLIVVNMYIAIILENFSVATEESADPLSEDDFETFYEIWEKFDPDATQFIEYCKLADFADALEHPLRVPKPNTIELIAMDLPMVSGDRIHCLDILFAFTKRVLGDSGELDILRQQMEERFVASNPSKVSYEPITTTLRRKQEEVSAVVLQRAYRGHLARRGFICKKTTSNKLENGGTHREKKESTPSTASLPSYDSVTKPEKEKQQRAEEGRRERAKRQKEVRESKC

The assay has as its target T1, human Nav1.6 (hNav1.6) (Homo sapiens, UniProt Q9UQD0).
T1 construct: expressed in transfected cells; host or cells: HEK-293 (G418 selection)
The experiment in a line: Modulation of late sodium current (INaL), PatchXpress electrophysiology. Format: cell-based. The note with it: HEK293; compound at 1 μM; HEK-293 cells expressing recombinant hNav1.6; late current evoked by 300 nM ATX-II; read-out: INaL v1.6 (1 μM, % Inhibition). The procedure: Functional characterization of exemplary compounds to modulate INaL expressed by the Nav1.6 voltage-gated sodium channel was accomplished using the PatchXpress™ high throughput electrophysiology platform (Molecular Devices, Sunnyvale, Calif.). HEK-293 cells expressing recombinant, human Nav1.6 (hNav1.6) were grown in DMEM/high-glucose Dulbecco's modified, 10% FBS, 2 mM sodium pyruvate, 10 mM HEPES and 400 μg/mL G418. Cells were grown to 50%-80% confluency prior to harvesting. Trypsinized cells were washed, allowed to recover for 1 hour and then resuspended in extracellular recording solution at a concentration of 1×10^6 cells/ml. The onboard liquid handling facility of the PatchXpress was used for dispensing cells and applying test compounds. Nav late currents were evoked by the application of 300 nM ATX-II. INaL was evoked by depolarizing pulses to 0 mV for 200 ms from a non-inactivating holding potential (e.g., −120 mV) at a frequency of 0.1 Hz. INaL amplitude and stability were determined by analyzing the mean current amplitude over the final 20 ms of the test pulse. Following steady state block with exemplary compounds (e.g., as described herein), a Na^+ free solution containing an impermeant cation (e.g., Choline or NDMG) was added to confirm the identify of the sodium current. Percent steady-state inhibition of INaL was calculated as: [(INaL_compound)/(INaL_control)]*100, where INaL_compound and INaL_control represent INaL recorded in the presence or absence of compound, respectively.
Results from this assay relating to percent inhibition of INaL at hNav1.6 (measured using procedure similar to described above but using HEK-293 cells expressing recombinant, human Nav1.6 (hNav1.6) at 1 μM are summarized in Table 1 below. In this table, “A” indicates inhibition of less than 30%; “B” indicates inhibition of between about 30% to about 70%; and “C” indicates inhibition of greater than 70%.
Usually inhibition stands for the relative decrease from the control value, in per cent. Turning to `FC(F)(F)Oc1ccc(-c2ccn3cncc3c2)cc1` [Compound 1], the inhibition at 1 µM was < 30%.

With `FC(F)(F)Oc1ccc(-c2ccn3cnc(C(F)(F)F)c3c2)cc1` [Compound 2], the inhibition at 1 µM was < 30%.

For the compound `FC(F)(F)Oc1ccc(-c2ccn3cnc(C(F)(F)F)c3n2)cc1` [Compound 4], the inhibition at 1 µM lay within 30 to 70%.

As for `Cc1cc(OC(F)(F)F)ccc1-c1cnn2cncc2c1` [Compound 5, 3-[2-methyl-4-(trifluoromethoxy)phenyl]imidazo[1,5-b]pyridazine], the inhibition at 1 µM is < 30%.

In the case of `Cc1cc(OC(F)(F)F)ccc1-c1cnn2cnc(C(F)(F)F)c2c1` [Compound 6], the inhibition at 1 µM was < 30%.

Consider `FC(F)(F)Oc1ccc(-c2cc3cncn3cn2)cc1` [Compound 7, 7-[4-(trifluoromethoxy)phenyl]imidazo[1,5-c]pyrimidine], for which the inhibition at 1 µM is < 30%.

As for `FC(F)(F)Oc1ccc(-c2cc3c(C(F)(F)F)ncn3cn2)cc1` [Compound 8], the inhibition at 1 µM was > 70%.

Take `Cc1cc(OC(F)(F)F)ccc1-c1cc2cncn2cn1` [Compound 9, 7-[2-methyl-4-(trifluoromethoxy)phenyl]imidazo[1,5-c]pyrimidine]: the inhibition at 1 µM is < 30%.

Consider `Fc1cc(-c2cc3cncn3cn2)cnc1OCC(F)(F)F` [Compound 10, 7-[5-fluoro-6-(2,2,2-trifluoroethoxy)-3-pyridyl]imidazo[1,5-c]pyrimidine], for which the inhibition at 1 µM was < 30%.

As for `C[C@H](Oc1ncc(-c2cc3cncn3cn2)cc1F)C(F)(F)F` [Compound 11, 7-[5-fluoro-6-[(1S)-2,2,2-trifluoro-1-methyl-ethoxy]-3-pyridyl]imidazo[1,5-c]pyrimidine], the inhibition at 1 µM is 30 to 70%.

Regarding `C[C@@H](Oc1ncc(-c2cc3cncn3cn2)cc1F)C(F)(F)F` [Compound 12, 7-[5-fluoro-6-[(1R)-2,2,2-trifluoro-1-methyl-ethoxy]-3-pyridyl]imidazo[1,5-c]pyrimidine], the inhibition at 1 µM was < 30%.

With `CC(C)(Oc1ncc(-c2cc3cncn3cn2)cc1F)C(F)(F)F` [Compound 13, 7-[5-fluoro-6-(2,2,2-trifluoro-1,1-dimethyl-ethoxy)-3-pyridyl]imidazo[1,5-c]pyrimidine], the inhibition at 1 µM was 30 to 70%.

With `Cc1cc(OC(F)(F)F)ccc1-c1cc2c(C(F)(F)F)ncn2cn1` [Compound 14], the inhibition at 1 µM was > 70%.

On to `C[C@@H](Oc1ncc(-c2cc3c(C(F)(F)F)ncn3cn2)cc1F)C(F)(F)F` [Compound 15], for which the inhibition at 1 µM lay within 30 to 70%.

As for `Fc1cc(-c2cc3c(C(F)(F)F)ncn3cn2)cnc1OCC(F)(F)F` [Compound 16], the inhibition at 1 µM is < 30%.

Take `CC(C)(Oc1ncc(-c2cc3c(C(F)(F)F)ncn3cn2)cc1F)C(F)(F)F` [Compound 17]: the inhibition at 1 µM was in the range of 30 to 70%.

`C[C@H](Oc1ncc(-c2cc3c(C(F)(F)F)ncn3cn2)cc1F)C(F)(F)F` [Compound 18]: the inhibition at 1 µM was in the range of 30 to 70%.

Take `C[C@@H](Oc1ncc(-c2cc3c(C(F)F)ncn3cn2)cc1F)C(F)(F)F` [Compound 19]: the inhibition at 1 µM is < 30%.

Take `C[C@H](Oc1ncc(-c2cc3c(C(F)F)ncn3cn2)cc1F)C(F)(F)F` [Compound 20]: the inhibition at 1 µM is < 30%.

Regarding `CC(C)(Oc1ncc(-c2cc3c(C(F)F)ncn3cn2)cc1F)C(F)(F)F` [Compound 21], the inhibition at 1 µM is 30 to 70%.

Regarding `Fc1cc(-c2cc3c(C(F)F)ncn3cn2)cnc1OCC(F)(F)F` [Compound 22], the inhibition at 1 µM is < 30%.

With `Cc1cc(OC(F)(F)F)ccc1-c1cc2c(C(F)F)ncn2cn1` [Compound 23], the inhibition at 1 µM is < 30%.

For `COCc1ncn2cnc(-c3cnc(O[C@@H](C)C(F)(F)F)c(F)c3)cc12` [Compound 24], the inhibition at 1 µM is < 30%.

As for `COCc1ncn2cnc(-c3cnc(O[C@H](C)C(F)(F)F)c(F)c3)cc12` [Compound 25], the inhibition at 1 µM is > 70%.

Turning to `COCc1ncn2cnc(-c3ccc(OC(F)(F)F)cc3)cc12` [Compound 26], the inhibition at 1 µM fell in the range of 30 to 70%.

For the compound `COCc1ncn2cnc(-c3cnc(OC(C)(C)C(F)(F)F)c(F)c3)cc12` [Compound 27], the inhibition at 1 µM is < 30%.
